Laboratory results published in publication PMC4893628, “Chalcone-based Selective Inhibitors of a C4 Plant Key Enzyme as Novel Potential Herbicides” (Scientific Reports, 2016).
Read-outs that look alike come from different tables or passages of the source.

Assays:
Amaranthus retroflexus = test: In planta growth experiment, A. retroflexus; assay type: in vivo; details: shoots sprayed, 3 mM
How it was run: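 Single top spray of 3 mM compound (2.4% DMSO, 0.1% Tween) onto two-leaf-stage plants in a climate chamber (22/20 °C, 16 h/8 h); controls got vehicle only.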

[1] = test system: Escherichia coli K-12 MG1655; test: Bacterial growth in microscale cultivation, E. coli; assay type: cell-based; details: for activity at 5 µM / activity at 50 µM / activity at 500 µM / activity at 4 µM / activity at 40 µM / activity at 400 µM: Escherichia coli; for Lag Phase / activity at 4 µM / activity at 40 µM / activity at 400 µM: relative to control
How it was run: (§1)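 In a BioLector microscale system shaken at 1200 rpm, growth was tracked by backscatter at 620 nm, and final signal, growth rate (h⁻¹) and lag-phase length were scored against DMSO-only controls. Starting OD600 was 0.5, or 0.25 for B. subtilis. Inhibitors came from DMSO stocks, with trans-chalcone capped at 400 μM and 2'-hydroxychalcone at 100 μM.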

[2] = test system: Corynebacterium glutamicum ATCC13032; test: Bacterial growth in microscale cultivation, C. glutamicum; assay type: cell-based; details: for activity at 5 µM / activity at 50 µM / activity at 500 µM / activity at 100 µM / activity at 4 µM / activity at 40 µM / activity at 120 µM / activity at 400 µM: Corynebacterium glutamicum; for Lag Phase / activity at 4 µM / activity at 40 µM / activity at 120 µM / activity at 400 µM: relative to control
How it was run: as §1

How did the Influence on plants (Amaranthus retroflexus) turn out when `O=C(/C=C/c1ccccc1)c1ccccc1O` [Compound 2, 2′-Hydroxychalcone] was run?
The Influence on plants was “No”.

What about the activity at 5 µM ([1]; MG1655, read-out: Final Backscatter, complex medium, 5 µM, relative to control) of the same compound?
The activity at 5 µM was 100%.

What about the activity at 50 µM ([1]; MG1655, read-out: Final Backscatter, complex medium, 50 µM, relative to control) of the same compound?
The activity at 50 µM was 103%.

What about the activity at 500 µM ([1]; MG1655, read-out: Final Backscatter, complex medium, 500 µM, relative to control) of the same compound?
The activity at 500 µM was 98.1%.

What about the activity at 5 µM ([1]; MG1655, read-out: Final Backscatter, minimal medium, 5 µM, relative to control) of the same compound?
The activity at 5 µM was 100%.

What about the activity at 50 µM ([1]; MG1655, read-out: Final Backscatter, minimal medium, 50 µM, relative to control) of the same compound?
The activity at 50 µM was 97%.

What about the activity at 500 µM ([1]; MG1655, read-out: Final Backscatter, minimal medium, 500 µM, relative to control) of the same compound?
The activity at 500 µM was 101%.

What about the activity at 5 µM ([1]; MG1655, read-out: Growth rate, complex medium, 5 µM, relative to control) of the same compound?
The activity at 5 µM was 97.7%.

And the activity at 50 µM ([1]; MG1655, read-out: Growth rate, complex medium, 50 µM, relative to control)?
Its activity at 50 µM is 86.6%.

What about the activity at 5 µM ([1]; MG1655, read-out: Growth rate, minimal medium, 5 µM, relative to control) of the same compound?
Its activity at 5 µM is 102%.

What about the activity at 50 µM ([1]; MG1655, read-out: Growth rate, minimal medium, 50 µM, relative to control) of the same compound?
Its activity at 50 µM is 105%.

And the “Lag Phase” value ([1]; complex medium, 5 µM)?
Its value is 95,5%.

And the “Lag Phase” value ([1]; complex medium, 50 µM)?
The value was 100,0%.

And the “Lag Phase” value ([1]; minimal medium, 5 µM)?
The value was 89,4%.

And the “Lag Phase” value ([1]; minimal medium, 50 µM)?
The value was 91,6%.

And the activity at 5 µM ([2]; ATCC13032, read-out: Final Backscatter, complex medium, 5 µM, relative to control)?
Its activity at 5 µM is 101%.

And the activity at 50 µM ([2]; ATCC13032, read-out: Final Backscatter, complex medium, 50 µM, relative to control)?
The activity at 50 µM was 105%.

What about the activity at 500 µM ([2]; ATCC13032, read-out: Final Backscatter, complex medium, 500 µM, relative to control) of the same compound?
Its activity at 500 µM is 111%.

And the activity at 5 µM ([2]; ATCC13032, read-out: Final Backscatter, minimal medium, 5 µM, relative to control)?
Its activity at 5 µM is 102%.

And the activity at 50 µM ([2]; ATCC13032, read-out: Final Backscatter, minimal medium, 50 µM, relative to control)?
Its activity at 50 µM is 99.6%.

And the activity at 100 µM ([2]; ATCC13032, read-out: Final Backscatter, minimal medium, 100 µM, relative to control)?
Its activity at 100 µM is 101%.

What about the activity at 500 µM ([2]; ATCC13032, read-out: Final Backscatter, minimal medium, 500 µM, relative to control) of the same compound?
Its activity at 500 µM is 102%.

And the activity at 5 µM ([2]; ATCC13032, read-out: Growth rate, complex medium, 5 µM, relative to control)?
Its activity at 5 µM is 96.2%.

What about the activity at 50 µM ([2]; ATCC13032, read-out: Growth rate, complex medium, 50 µM, relative to control) of the same compound?
Its activity at 50 µM is 91.5%.

What about the activity at 500 µM ([2]; ATCC13032, read-out: Growth rate, complex medium, 500 µM, relative to control) of the same compound?
The activity at 500 µM was 102%.

What about the activity at 5 µM ([2]; ATCC13032, read-out: Growth rate, minimal medium, 5 µM, relative to control) of the same compound?
The activity at 5 µM was 101%.

And the activity at 50 µM ([2]; ATCC13032, read-out: Growth rate, minimal medium, 50 µM, relative to control)?
The activity at 50 µM was 99.6%.

And the activity at 100 µM ([2]; ATCC13032, read-out: Growth rate, minimal medium, 100 µM, relative to control)?
Its activity at 100 µM is 101%.

And the activity at 500 µM ([2]; ATCC13032, read-out: Growth rate, minimal medium, 500 µM, relative to control)?
The activity at 500 µM was 92.9%.

What about the “Lag Phase” value ([2]; complex medium, 5 µM) of the same compound?
The value was 98,4%.

And the “Lag Phase” value ([2]; complex medium, 50 µM)?
Its value is 100,0%.

And the “Lag Phase” value ([2]; complex medium, 500 µM)?
Its value is 101,1%.

What about the “Lag Phase” value ([2]; minimal medium, 5 µM) of the same compound?
The value was 98,7%.

And the “Lag Phase” value ([2]; minimal medium, 50 µM)?
The value was 102,6%.

What about the “Lag Phase” value ([2]; minimal medium, 100 µM) of the same compound?
The value was 104,2%.

What about the “Lag Phase” value ([2]; minimal medium, 500 µM) of the same compound?
The value was 124,3%.

Which Influence on plants (Amaranthus retroflexus) does the source give for `O=C(/C=C/c1ccc(O)cc1)c1ccccc1O` [Compound 3, 2′,4-Dihydroxychalcone] here?
Its Influence on plants is “No”.

What about the activity at 4 µM ([1]; MG1655, complex medium, 4 µM, read-out: Final Backscatter) of the same compound?
Its activity at 4 µM is 101%.

And the activity at 4 µM ([1]; MG1655, complex medium, 4 µM, read-out: Growth rate)?
The activity at 4 µM was 88.3%.

And the activity at 40 µM ([1]; MG1655, complex medium, 40 µM, read-out: Final Backscatter)?
Its activity at 40 µM is 102%.

And the activity at 40 µM ([1]; MG1655, complex medium, 40 µM, read-out: Growth rate)?
The activity at 40 µM was 95%.

And the activity at 400 µM ([1]; MG1655, complex medium, 400 µM, read-out: Growth rate)?
Its activity at 400 µM is 99.2%.

And the activity at 4 µM ([1]; MG1655, minimal medium, 4 µM, read-out: Final Backscatter)?
The activity at 4 µM was 100%.

What about the activity at 4 µM ([1]; MG1655, minimal medium, 4 µM, read-out: Growth rate) of the same compound?
The activity at 4 µM was 106%.

What about the activity at 40 µM ([1]; MG1655, minimal medium, 40 µM, read-out: Final Backscatter) of the same compound?
Its activity at 40 µM is 99.1%.

What about the activity at 40 µM ([1]; MG1655, minimal medium, 40 µM, read-out: Growth rate) of the same compound?
The activity at 40 µM was 95.3%.

What about the activity at 400 µM ([1]; MG1655, minimal medium, 400 µM, read-out: Final Backscatter) of the same compound?
The activity at 400 µM was 101%.

And the activity at 400 µM ([1]; MG1655, minimal medium, 400 µM, read-out: Growth rate)?
The activity at 400 µM was 108%.

And the “Lag Phase” value ([1]; complex medium, 4 µM)?
The value was 101,4%.

What about the “Lag Phase” value ([1]; complex medium, 40 µM) of the same compound?
Its value is 102,1%.

What about the “Lag Phase” value ([1]; complex medium, 400 µM) of the same compound?
The value was 97,8%.

What about the “Lag Phase” value ([1]; minimal medium, 4 µM) of the same compound?
The value was 99,3%.

What about the “Lag Phase” value ([1]; minimal medium, 40 µM) of the same compound?
The value was 100,0%.

And the “Lag Phase” value ([1]; minimal medium, 400 µM)?
The value was 98,6%.

And the activity at 4 µM ([2]; ATCC13032, complex medium, 4 µM, read-out: Final Backscatter)?
The activity at 4 µM was 100%.

And the activity at 4 µM ([2]; ATCC13032, complex medium, 4 µM, read-out: Growth rate)?
The activity at 4 µM was 101%.

And the activity at 40 µM ([2]; ATCC13032, complex medium, 40 µM, read-out: Final Backscatter)?
Its activity at 40 µM is 103%.

What about the activity at 40 µM ([2]; ATCC13032, complex medium, 40 µM, read-out: Growth rate) of the same compound?
Its activity at 40 µM is 99.1%.

What about the activity at 120 µM ([2]; ATCC13032, complex medium, 120 µM, read-out: Final Backscatter) of the same compound?
Its activity at 120 µM is 111%.

And the activity at 120 µM ([2]; ATCC13032, complex medium, 120 µM, read-out: Growth rate)?
The activity at 120 µM was 107%.

What about the activity at 400 µM ([2]; ATCC13032, complex medium, 400 µM, read-out: Final Backscatter) of the same compound?
Its activity at 400 µM is 112%.

And the activity at 400 µM ([2]; ATCC13032, complex medium, 400 µM, read-out: Growth rate)?
Its activity at 400 µM is 93.9%.

And the activity at 4 µM ([2]; ATCC13032, minimal medium, 4 µM, read-out: Final Backscatter)?
The activity at 4 µM was 102%.

And the activity at 4 µM ([2]; ATCC13032, minimal medium, 4 µM, read-out: Growth rate)?
Its activity at 4 µM is 99.6%.

What about the activity at 40 µM ([2]; ATCC13032, minimal medium, 40 µM, read-out: Final Backscatter) of the same compound?
The activity at 40 µM was 103%.

What about the activity at 40 µM ([2]; ATCC13032, minimal medium, 40 µM, read-out: Growth rate) of the same compound?
Its activity at 40 µM is 99.5%.

And the activity at 120 µM ([2]; ATCC13032, minimal medium, 120 µM, read-out: Final Backscatter)?
The activity at 120 µM was 102%.

And the activity at 120 µM ([2]; ATCC13032, minimal medium, 120 µM, read-out: Growth rate)?
Its activity at 120 µM is 96.7%.

And the activity at 400 µM ([2]; ATCC13032, minimal medium, 400 µM, read-out: Final Backscatter)?
Its activity at 400 µM is 106%.

And the activity at 400 µM ([2]; ATCC13032, minimal medium, 400 µM, read-out: Growth rate)?
The activity at 400 µM was 81.2%.

What about the “Lag Phase” value ([2]; complex medium, 4 µM) of the same compound?
The value was 93,2%.

What about the “Lag Phase” value ([2]; complex medium, 40 µM) of the same compound?
Its value is 93,8%.

And the “Lag Phase” value ([2]; complex medium, 120 µM)?
The value was 100,5%.

And the “Lag Phase” value ([2]; complex medium, 400 µM)?
The value was 118,1%.

And the “Lag Phase” value ([2]; minimal medium, 4 µM)?
Its value is 100,0%.

What about the “Lag Phase” value ([2]; minimal medium, 40 µM) of the same compound?
The value was 97,3%.

What about the “Lag Phase” value ([2]; minimal medium, 120 µM) of the same compound?
Its value is 107,7%.

And the “Lag Phase” value ([2]; minimal medium, 400 µM)?
Its value is 139,3%.
